What was measured:
[1] = test system: A549 (Human lung adenocarcinoma epithelial cell line); experiment: MTT cell proliferation assay in A549 cell line; format: cell-based; settings: A549 cells, treated 72 hr or 96 hr
Experimental: (§1) Exemplary assays include MTT cell proliferation assay in A549 (Human lung adenocarcinoma epithelial cell line), and HL60 (Human promyelocytic leukemia cells) cell lines. Suitable cells include those derived through cell culture from patient samples (cancer cell lines) as well as cells derived using routine molecular biology techniques, e.g., retroviral transduction, transfection, mutagenesis, etc.
(§2) In an exemplary MTT assay, approximately 1,000 cells (A549 or HL60) are plated into each well of a 96-well plate. Cells are treated in duplicate with test compounds in a dose titration manner, typically 3-fold dilutions, eleven points per assay, with starting concentrations of 20 or 10 μM) or with DMSO-control (0.2% final concentration). Cells are treated for 72 hours (hr) or 96 hr before being analyzed by the MTT method. After 72 hr or 96 hr of compound treatment, 10 μL of MTT dye solution (5 mg/mL MTT dye [Sigma #M2128] in water) is added to each well and incubated at 37° C. for 2 hr. Following incubation, 100 μL of lysis buffer (10% SDS, 0.01 N HCl in water) is added to each well and incubated overnight at 37° C. The plate is analyzed the following day using a colorimetric plate reader at 595 nm wavelength. Values obtained for treatment samples are normalized to control samples.

[2] = test system: HL60 (Human promyelocytic leukemia cells); experiment: MTT cell proliferation assay in HL60 cell line; format: cell-based; settings: HL-60, treated 72 hr or 96 hr
Experimental: as §1, §2

IC50 [1] [µM]	IC50 [2] [µM]	SMILES
< 3	< 3	CN[C@H]1CN(c2ccc3c(=O)c(S(=O)(=O)N4CCCCC4)cn(-c4nccs4)c3n2)C[C@@H]1OC
< 3	< 3	O=c1c(S(=O)(=O)N2CCCCC2)cn(-c2nccs2)c2nc(N3CCN(C4CCCCC4)CC3)ccc12
< 3	< 3	C[C@@H]1CN(c2ccc3c(=O)c(S(=O)(=O)N4CCCCC4)cn(-c4nccs4)c3n2)CCN1
< 3	< 3	C[C@@H]1CN(c2ccc3c(=O)c(S(=O)(=O)N4CCCCC4)cn(-c4nccs4)c3n2)C[C@H](C)N1
< 3	< 3	CN(C)[C@@H]1CCN(c2ccc3c(=O)c(S(=O)(=O)N4CCCCC4)cn(-c4nccs4)c3n2)C1
< 3	< 3	O=c1c(S(=O)(=O)N2CCCCC2)cn(-c2nccs2)c2nc(N3CCC(N4CCCC4)CC3)ccc12
3 to 10	> 10	COC[C@@H]1CCCN1c1ccc2c(=O)c(S(=O)(=O)N3CCCCC3)cn(-c3nccs3)c2n1
3 to 10	> 10	COC[C@H]1CCCN1c1ccc2c(=O)c(S(=O)(=O)N3CCCCC3)cn(-c3nccs3)c2n1
< 3	< 3	N[C@@H]1CCN(c2ccc3c(=O)c(S(=O)(=O)N4CCCCC4)cn(-c4nccs4)c3n2)C1
< 3	> 10	O=c1c(S(=O)(=O)N2CCCCC2)cn(-c2nccs2)c2nc(N3CCC(O)C3)ccc12 (centres unmarked)
< 3	< 3	CCN(CC)C1CCN(c2ccc3c(=O)c(S(=O)(=O)N4CCCCC4)cn(-c4nccs4)c3n2)C1 (centres unmarked)
3 to 10	> 10	O=c1c(S(=O)(=O)N2CCCCC2)cn(-c2nccs2)c2nc(N3CCOCC3)ccc12
< 3	> 10	CN1CCN(c2ccc3c(=O)c(S(=O)(=O)N4CCCCC4)cn(-c4nccs4)c3n2)CC1
< 3	< 3	O=c1c(S(=O)(=O)N2CCCCC2)cn(-c2nccs2)c2nc(N3CCNCC3)ccc12
< 3	> 10	O=c1c(S(=O)(=O)N2CCCCC2)cn(-c2nccs2)c2nc(N3CCCC3)ccc12
> 10	> 10	COC[C@@H]1CCCN1c1ccc2c(=O)c(S(=O)(=O)N(C)C)cn(-c3nccs3)c2n1

The remaining lines, values behind:

SMILES	IC50 [1] [µM]	IC50 [2] [µM]
O=c1c(S(=O)(=O)N2CCCCC2)cn(-c2nccs2)c2nc(N3CCN(c4cccnc4)CC3)ccc12	< 3	3 to 10
O=c1c(S(=O)(=O)N2CCCCC2)cn(-c2nccs2)c2nc(N3CCN(c4ccc(C(F)(F)F)cc4)CC3)ccc12	< 3	
CN[C@H]1CN(c2ccc3c(=O)c(S(=O)(=O)N(C)C)cn(-c4nccs4)c3n2)C[C@@H]1OC	< 3	< 3
CN(C)S(=O)(=O)c1cn(-c2nccs2)c2nc(N3CCN(c4ccccn4)CC3)ccc2c1=O	> 10	> 10
CN(C)S(=O)(=O)c1cn(-c2nccs2)c2nc(N3CCN(C4CCCCC4)CC3)ccc2c1=O	< 3	3 to 10
C[C@@H]1CN(c2ccc3c(=O)c(S(=O)(=O)N(C)C)cn(-c4nccs4)c3n2)CCN1	3 to 10	> 10
C[C@@H]1CN(c2ccc3c(=O)c(S(=O)(=O)N(C)C)cn(-c4nccs4)c3n2)C[C@H](C)N1	3 to 10	3 to 10
CN(C)[C@@H]1CCN(c2ccc3c(=O)c(S(=O)(=O)N(C)C)cn(-c4nccs4)c3n2)C1	< 3	3 to 10
CN(C)S(=O)(=O)c1cn(-c2nccs2)c2nc(N3CCC(N4CCCC4)CC3)ccc2c1=O	3 to 10	3 to 10
CN(C)S(=O)(=O)c1cn(-c2nccs2)c2nc(N3CC[C@@H](N)C3)ccc2c1=O	< 3	< 3
CN(C)S(=O)(=O)c1cn(-c2nccs2)c2nc(N3CCOCC3)ccc2c1=O	> 10	> 10
CN(C)S(=O)(=O)c1cn(-c2nccs2)c2nc(N3CCNCC3)ccc2c1=O	3 to 10	3 to 10
CN(C)S(=O)(=O)c1cn(-c2nccs2)c2nc(N3CCCC3)ccc2c1=O	< 3	> 10
CN[C@H]1CN(c2cnc3c(=O)c(C(=O)O)cn(-c4nccs4)c3n2)C[C@@H]1OC	> 10	> 10
CN(C)[C@@H]1CCN(c2cnc3c(=O)c(C(=O)O)cn(-c4nccs4)c3n2)C1	> 10	> 10
N[C@@H]1CCN(c2cnc3c(=O)c(C(=O)O)cn(-c4nccs4)c3n2)C1	> 10	> 10

SMILES	IC50 [1] [µM]	IC50 [2] [µM]
COC1CCN(c2cnc3c(=O)c(C(=O)O)cn(-c4nccs4)c3n2)C1 (centres unmarked)	> 10	> 10
O=C(O)c1cn(-c2nccs2)c2nc(N3CCC(O)C3)cnc2c1=O (centres unmarked)	> 10	> 10
CCN(CC)C1CCN(c2cnc3c(=O)c(C(=O)O)cn(-c4nccs4)c3n2)C1 (centres unmarked)	> 10	> 10
O=C(O)c1cn(-c2nccs2)c2nc(N3CCCC3)cnc2c1=O	3 to 10	3 to 10
CC1CCCN1c1cnc2c(=O)c(C(=O)O)cn(-c3nccs3)c2n1 (centres unmarked)	3 to 10	> 10
COC[C@H]1CCCN1c1cnc2c(=O)c(C(=O)O)cn(-c3nccs3)c2n1	> 10	> 10
COC[C@@H]1CCCN1c1cnc2c(=O)c(C(=O)O)cn(-c3nccs3)c2n1	> 10	> 10
CN1CCN(c2cnc3c(=O)c(C(=O)O)cn(-c4nccs4)c3n2)CC1	> 10	> 10
CCN1CCN(c2cnc3c(=O)c(C(=O)O)cn(-c4nccs4)c3n2)CC1	> 10	> 10
O=C(O)c1cn(-c2nccs2)c2nc(N3CCN(C4CCCCC4)CC3)cnc2c1=O	> 10	> 10
O=C(O)c1cn(-c2nccs2)c2nc(N3CCNCC3)cnc2c1=O	> 10	> 10
C[C@@H]1CN(c2cnc3c(=O)c(C(=O)O)cn(-c4nccs4)c3n2)C[C@H](C)N1	> 10	> 10
C[C@@H]1CN(c2cnc3c(=O)c(C(=O)O)cn(-c4nccs4)c3n2)CCN1	> 10	> 10
O=C(O)c1cn(-c2nccs2)c2nc(N3CCOCC3)cnc2c1=O	> 10	> 10
O=C(O)c1cn(-c2nccs2)c2nc(N3CCN(c4ccccn4)CC3)cnc2c1=O	> 10	> 10
CC(C)(C)OC(=O)N1CCN(c2cnc3c(=O)c(C(=O)O)cn(-c4nccs4)c3n2)CC1	> 10	> 10
